In patent US20110224136A1, “INHIBITORS OF DIACYLGLYCEROL ACYLTRANSFERASE” (priority 2008, published 2011):

Molecular target: T1, human DGAT1 enzyme (Homo sapiens, UniProt O75907)
T1 construct: made in house; host or cells: Sf9 insect cells (microsomes)
T1 sequence (O75907 1-488): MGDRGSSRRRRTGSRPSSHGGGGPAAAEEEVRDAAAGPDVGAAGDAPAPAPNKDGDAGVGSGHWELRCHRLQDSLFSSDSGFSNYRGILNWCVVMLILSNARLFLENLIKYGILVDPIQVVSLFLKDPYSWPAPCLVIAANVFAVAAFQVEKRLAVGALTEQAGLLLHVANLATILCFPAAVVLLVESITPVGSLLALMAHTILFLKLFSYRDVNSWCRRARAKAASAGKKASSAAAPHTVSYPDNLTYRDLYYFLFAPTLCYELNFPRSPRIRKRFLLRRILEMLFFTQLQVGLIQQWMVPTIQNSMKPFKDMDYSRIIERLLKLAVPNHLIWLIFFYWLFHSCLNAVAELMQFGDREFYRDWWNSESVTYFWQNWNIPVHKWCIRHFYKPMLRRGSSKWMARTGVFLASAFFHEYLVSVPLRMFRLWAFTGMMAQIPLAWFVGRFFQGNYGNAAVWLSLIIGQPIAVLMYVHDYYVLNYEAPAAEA
Experiment: in vitro DGAT1 inhibition assay (microsomes, [14C]-palmitoyl-CoA, scintillation proximity)
Format: biochemical
Settings: human DGAT1 expressed in Sf9 insect cell microsomes; 2 hours at room temperature; read-out: hDGAT IC50
Procedure: A useful assay to determine the DGAT inhibitory activity of the inventive compounds is described below:
The in vitro assay to identify DGAT1 inhibitors uses human DGAT1 enzyme expressed in Sf9 insect cells prepared as microsomes. The reaction is initiated by the addition of the combined substrates 1,2-dioleoyl-sn-glycerol and [^14C]-palmitoyl-CoA and incubated with test compounds and microsomal membranes for 2 hours at room temperature. The assay is stopped by adding 0.5 mg wheat germ agglutinin beads in assay buffer with 1% Brij-35 and 1% 3-cholamidopropyldimethyl-ammonio-1-propane sulfonate. Plates are sealed with TopSeal and incubated for 18 hours to allow the radioactive triglyceride product to come into proximity with the bead. Plates are read on a TopCount instrument.
Percent inhibition was calculated as the percent of (test compound inhibition minus non-specific binding) relative to (total binding minus non-specific binding). IC50 values were determined by curve fitting the data to a Sigmoidal dose-response in GraphPad Prism utilizing the following equation:
Y=A+(B−A)/(1+10̂((Log IC50−X))),
where A and B are the bottom and top of the curve (highest and lowest inhibition), respectively, and X is the logarithm of concentration.

SMILES | IC50
C[C@@H]1CN(c2ccc(NC(=O)c3oc(N4CCC(c5ccccc5)CC4)nc3C(F)(F)F)cn2)CCN1C(=O)Nc1ccccc1F [Compound 266] | 11 to 100 nM
Cc1ccccc1NC(=O)c1ccc(-c2ccc(NC(=O)c3sc(CN(C)c4ccccc4)nc3C(F)(F)F)nc2)cc1 [Compound 250, 2-((methyl(phenyl)amino)methyl)-N-(5-(4-(o-tolylcarbamoyl)phenyl)pyridin-2-yl)-4-(trifluoromethyl)thiazole-5-carboxamide] | 101 to 500 nM
O=C(Nc1ccc(N2CCN(C(=O)Nc3ccccc3F)CC2)nc1)c1oc(N2CCC(F)(c3ccccc3)CC2)nc1C(F)(F)F [Compound 325, N-(6-(4-(2-fluorophenylcarbamoyl)piperazin-1-yl)pyridin-3-yl)-2-(4-fluoro-4-phenylpiperidin-1-yl)-4-(trifluoromethyl)oxazole-5-carboxamide] | 101 to 500 nM
O=C(Nc1ccc(N2CCN(C(=O)Nc3ccccc3F)CC2)nc1)c1oc(N2CCc3ccccc3C2)nc1C(F)(F)F [Compound 335, 2-(3,4-dihydroisoquinolin-2(1H)-yl)-N-(6-(4-(2-fluorophenylcarbamoyl)-piperazin-1-yl)pyridin-3-yl)-4-(trifluoromethyl)oxazole-5-carboxamide] | 11 to 100 nM
CC1CCCN(c2nc(C(F)(F)F)c(C(=O)Nc3ccc(N4CCN(C(=O)[C@H]5CC[C@H](C(=O)O)CC5)CC4)nc3)o2)C1 (stereo partly drawn) [Compound 341, trans-4-[[4-[5-[[[2-(3-methyl-1-piperidinyl)-4-(trifluoromethyl)-5-oxazolyl]carbonyl]amino]-2-pyridinyl]-1-piperazinyl]carbonyl]cyclohexanecarboxylic acid] | 101 to 500 nM
CC1CCCN(c2nc(C(F)(F)F)c(C(=O)Nc3ccc(N4CCN(C(=O)Nc5ccccc5F)CC4)cn3)o2)C1 (stereo not drawn) [Compound 236, N-(5-(4-(2-fluorophenylcarbamoyl)piperazin-1-yl)pyridin-2-yl)-2-(3-methylpiperidin-1-yl)-4-(trifluoromethyl)oxazole-5-carboxamide] | 11 to 100 nM
CN(CCc1ccccc1)c1nc(C(F)(F)F)c(C(=O)Nc2ccc(N3CCN(C(=O)Nc4ccccc4F)CC3)nc2)o1 [Compound 316, N-(6-(4-(2-fluorophenylcarbamoyl)piperazin-1-yl)pyridin-3-yl)-2-(methyl(phenethyl)amino)-4-(trifluoromethyl)oxazole-5-carboxamide] | 11 to 100 nM
O=C(Nc1ccc(N2CCN(C(=O)Nc3ccccc3F)CC2)nc1)c1oc(N2CCC(c3cccc(F)c3)C2)nc1C(F)(F)F (stereo not drawn) [Compound 279, 2-(3-(3-fluorophenyl)pyrrolidin-1-yl)-N-(6-(4-(2-fluorophenylcarbamoyl)piperazin-1-yl)pyridin-3-yl)-4-(trifluoromethyl)oxazole-5-carboxamide] | 11 to 100 nM
CC1CCCN(c2nc(C(F)(F)F)c(C(=O)Nc3ccc(-c4ccc(C(=O)O)nc4)cc3)o2)C1 (stereo not drawn) [Compound 229, 5-(4-(2-(3-methylpiperidin-1-yl)-4-(trifluoromethyl)oxazole-5-carboxamido)phenyl)picolinic acid] | 101 to 500 nM
CN(Cc1nc(C(F)(F)F)c(C(=O)Nc2ccc(N3CCN(C(=O)Nc4ccccc4F)CC3)nc2)s1)c1ccccc1 [Compound 247, N-(6-(4-(2-fluorophenylcarbamoyl)piperazin-1-yl)pyridin-3-yl)-2-((methyl(phenyl)amino)methyl)-4-(trifluoromethyl)thiazole-5-carboxamide] | 101 to 500 nM
Cc1cc(N2CCN(C(=O)Nc3ccccc3F)CC2)ncc1NC(=O)c1oc(N2CCCC(C)C2)nc1C(F)(F)F (stereo not drawn) [Compound 321, N-(6-(4-(2-fluorophenylcarbamoyl)piperazin-1-yl)-4-methylpyridin-3-yl)-2-(3-methylpiperidin-1-yl)-4-(trifluoromethyl)oxazole-5-carboxamide] | 101 to 500 nM
O=C(Nc1ccc(N2CCN(C(=O)[C@H]3CC[C@H](C(=O)O)CC3)CC2)nc1)c1oc(N2CCC(c3ccccc3)CC2)nc1C(F)(F)F [Compound 296, trans-4-(4-(5-(2-(4-phenylpiperidin-1-yl)-4-(trifluoromethyl)oxazole-5-carboxamido)pyridin-2-yl)piperazine-1-carbonyl)cyclohexanecarboxylic acid] | 11 to 100 nM
O=C(Nc1ccc(N2CCN(C(=O)Nc3ccccc3F)CC2)nc1)c1oc(N2CC[C@H](c3ccccc3)C2)nc1C(F)(F)F [Compound 270, (R)—N-(6-(4-(2-fluorophenylcarbamoyl)piperazin-1-yl)pyridin-3-yl)-2-(3-phenylpyrrolidin-1-yl)-4-(trifluoromethyl)oxazole-5-carboxamide] | 11 to 100 nM
Cc1ccccc1NC(=O)c1ccc(-c2ccc(NC(=O)c3oc(N4CCCC(C)C4)nc3C(F)(F)F)cc2)cn1 (stereo not drawn) [Compound 232, 2-(3-methylpiperidin-1-yl)-N-(4-(6-(o-tolylcarbamoyl)pyridin-3-yl)phenyl)-4-(trifluoromethyl)oxazole-5-carboxamide] | 11 to 100 nM
Cc1ccccc1NC(=O)c1ccc(-c2ccc(NC(=O)c3oc(N4CCCC(C)C4)nc3C(F)(F)F)cn2)cc1 (stereo not drawn) [Compound 333, 2-(3-methylpiperidin-1-yl)-N-(6-(4-(o-tolylcarbamoyl)phenyl)pyridin-3-yl)-4-(trifluoromethyl)oxazole-5-carboxamide] | 11 to 100 nM
CC1CCCN(c2nc(C(F)(F)F)c(C(=O)Nc3ccc(N4CCN(C(=O)Nc5ccccc5F)C[C@@H]4C)nc3)o2)C1 (stereo partly drawn) [Compound 315, N-(6-((S)-4-(2-fluorophenylcarbamoyl)-2-methylpiperazin-1-yl)pyridin-3-yl)-2-(3-methylpiperidin-1-yl)-4-(trifluoromethyl)oxazole-5-carboxamide] | 101 to 500 nM
O=C(Nc1ccc(N2CCN(C(=O)Nc3ccccc3F)CC2)nc1)c1oc(NC2CCN(Cc3ccccc3)C2)nc1C(F)(F)F (stereo not drawn) [Compound 307, 2-(1-benzylpyrrolidin-3-ylamino)-N-(6-(4-(2-fluorophenylcarbamoyl)piperazin-1-yl)pyridin-3-yl)-4-(trifluoromethyl)oxazole-5-carboxamide] | 101 to 500 nM
O=C(Nc1cnc(N2CCN(C(=O)Nc3ccccc3F)CC2)nc1)c1oc(N2CCC(c3ccccc3)CC2)nc1C(F)(F)F [Compound 327, N-(2-(4-(2-fluorophenylcarbamoyl)piperazin-1-yl)pyrimidin-5-yl)-2-(4-phenylpiperidin-1-yl)-4-(trifluoromethyl)oxazole-5-carboxamide] | 101 to 500 nM
Cc1ccccc1NC(=O)c1ccc(-c2ccc(NC(=O)c3oc(N4CCCC(C)C4)nc3C(F)(F)F)nc2)cc1 (stereo not drawn) [Compound 227, 2-(3-methylpiperidin-1-yl)-N-(5-(4-(o-tolylcarbamoyl)phenyl)pyridin-2-yl)-4-(trifluoromethyl)oxazole-5-carboxamide] | 11 to 100 nM
C[C@@H]1CN(C(=O)Nc2ccccc2F)CCN1c1ccc(NC(=O)c2oc(N3CCC(c4ccccc4)CC3)nc2C(F)(F)F)cn1 [Compound 310, (R)—N-(6-(4-(2-fluorophenylcarbamoyl)-2-methylpiperazin-1-yl)pyridin-3-yl)-2-(4-phenylpiperidin-1-yl)-4-(trifluoromethyl)oxazole-5-carboxamide] | 101 to 500 nM
CC1CCCN(c2nc(C(F)(F)F)c(C(=O)Nc3ccc(N[C@H]4CCN(C(=O)c5ccccc5F)C4)nc3)o2)C1 (stereo partly drawn) [Compound 260, N-(6-((S)-1-(2-fluorobenzoyl)pyrrolidin-3-ylamino)pyridin-3-yl)-2-(3-methylpiperidin-1-yl)-4-(trifluoromethyl)oxazole-5-carboxamide] | 101 to 500 nM
